The results in this text go back to patent US12435083B2, “Cyclopropyl-(hetero)aryl-substituted ethylsulphonyl-pyridine derivatives” (BOEHRINGER INGELHEIM VETMEDICA GMBH, priority 2021, dated 2025).

Where only a bound is given, the exact number is not on record here.

One test deals with Aedes aegypti L1 larvae. As to the kind of experiment: Activity against larvae of Aedes aegypti (L1 larvae, 384-well, image-based mortality). Conditions: 48 h at 27° C., 384-well, read-out: EC50 (percentage of mortality, A. aegypti L1 larvae). On the procedure:
Example 3: Screening Method to Test Activity of Compounds of Formula (I) Against Larvae of Aedes aegypti
Eight A. aegypti L1 larvae in a total volume of 64 μL water were added to 384-well microplates containing compounds formulated in 100% DMSO. The plates were incubated for 48 h at 27° C. Individual well images were acquired and analyzed using a pipeline to quantitatively assess the amount of larvae biomass accumulating at the bottom of the well. The efficacy of a compound at a given dose is expressed as “percentage of mortality” and determined by comparison to average biomass descriptors of positive and negative control wells containing 1.0 μM Fipronil or DMSO only, respectively. Dose response assay were conducted to determine an EC50 value.

Test [1] has as its system adult Ctenocephalides felis fleas. As to the kind of experiment: Contact activity against adult Ctenocephalides felis (treated surface, motility by machine vision, 24 h). Conditions: treated surface, 24h, read-out: EC80 (% motility reduction, adult C. felis, contact). The source says:
Example 7: Screening Method to Test Contact Activity of Compounds of Formula (I) Against Adult Ctenocephalides felis

A further test relates to Plutella xylostella. As to the kind of experiment: Insecticidal test on Plutella xylostella (Chinese cabbage seedling dip). The note with it: 144 h, 500 ppm, seedling dip, 6 days after dip treatment, read-out: activity level (corrected mortality rate), Plutella xylostella. As for the experimental part:
Example 12: Insecticidal Test on Plutella xylostella
(§1) The compounds of formula (I) of the present invention or salts thereof were separately dispersed in water and diluted to 500 ppm. Ten adults of Plutella xylostella were released onto Chinese cabbage seedlings and allowed to lay eggs thereon. 2 days after the release of the adults, the seedling was dipped in the dispersion for about 30 seconds. After air dried, the seedling was kept in a room at 25° C. 6 days after the dip treatment, the numbers of the dead and alive insects were counted. The corrected mortality rate was calculated according to the following formula and the insecticidal activity was evaluated according to the following criteria. Corrected mortality rate (%)=100×(Survival rate in an untreated plot−Survival rate in a treated plot)/Survival rate in an untreated plot • A: the corrected mortality rate is 100% • B: the corrected mortality rate is 90 to 99% • C: the corrected mortality rate is 80 to 89% • D: the corrected mortality rate is 50 to 79%

A further test relates to Myzus persicae. The test can be described thus: Insecticidal test on Myzus persicae (foliar application on potted Chinese cabbage). Conditions: 144 h, 500 ppm, foliar application, 6 days after application, read-out: control efficacy level (control rate), Myzus persicae. An excerpt: Example 14: Insecticidal Test on Myzus persicae
The compounds of formula (I) of the present invention or salts thereof were separately dispersed in water and diluted to 500 ppm. Chinese cabbage plants were planted in plastic pots (diameter: 8 cm, height: 8 cm). Aphids (Myzus persicae) were propagated on the plants and then the number of surviving aphids was counted. The dispersion was applied to the foliage of the potted plants. After the plants were air dried, these were kept in a greenhouse. 6 days after the application, the number of the alive insects was counted on the plants. The control rate was calculated according to the following formula and the control efficacy was evaluated according to the following criteria. Control rate (%)=100−{(T×Ca)/(Ta×C)}×100 • Ta: the number of alive insects before the foliar application in a treated plot • T: the number of alive insects after the foliar application in a treated plot • Ca: the number of alive insects before the foliar application in an untreated plot • C: the number of alive insects after the foliar application in an untreated plot • A: the control rate is 100% • B: the control rate is 90 to 99% • C: the control rate is 80 to 89% • D: the control rate is 50 to 79%

Test [2] has as its system Laodelphax striatellus 3rd-instar nymphs. As to the kind of experiment: Insecticidal test on Laodelphax striatellus (rice seedling dip). Conditions: 192 h, 500 ppm, seedling dip, 8 days after inoculation, read-out: activity level (corrected mortality rate), Laodelphax striatellus. On the procedure:
Example 13: Insecticidal Test on Laodelphax striatellus
as §1, with “Rice plant seedlings” for “Ten adults of Plutella xylostella”, “were” for “were released onto Chinese cabbage seedlings and allowed to lay eggs thereon. 2 days after the release of the adults, the seedling was”, “seedlings were put into a separate glass test tube and inoculated with ten 3rd-instar nymphs of Laodelphax striatellus and then the glass test tube” for “seedling”, “8” for “6”, “inoculation,” for “dip treatment,”

Test [3] relates to adult Rhipicephalus sanguineus ticks. The test can be described thus: Contact activity against adult Rhipicephalus sanguineus (coated vial, mortality at 48 h). Conditions: Rhipicephalus sanguineus; 48 hours post-treatment, coated vial; read-out: EC50 (percentage mortality, adult R. sanguineus, contact). As for the experimental part: Example 5: Screening Method to Test Contact Activity of Compounds of Formula (I) Against Adult Rhipicephalus sanguineus
Compounds of formula (I) formulated in 100% DMSO were diluted in a solution containing acetone and Triton X-100 (0.02%). The resulting formulation was used to coat the inner walls of glass scintillation vials and the filter paper covering the cap of the vial. Once dried, ten adult R. sanguineus ticks were added to the vials. The vials were incubated at 24° C., 95% relative humidity, and 12 hours of light/12 hours of dark until evaluation. Ticks were visually evaluated for mortality at 48 hours post-treatment. Compound efficacy at a given dose is expressed as percentage mortality. A dose response series was implemented to determine EC50 values.
The four structurally closest prior art compounds (A), (B), (C) and (D) specifically excluded from the scope of formula (I) were characterized vis-a-vis selected compounds of formula (I) with regard to their potency in in vitro screening assays against fleas (Ctenocehalides felis) and ticks (Rhipicephalus sanguineus).
However, as explained above, spectrum of action against this range of species (i.e. fleas and ticks) is a desirable property of ectoparasiticides for veterinary use. In the following table 1 comparative experimental data of the in vitro assays are shown regarding flea membrane feeding (ingestion, blood feeding) activity against Ctenocephalides felis and contact activity against Rhipicephalus sanguineus.

With `CCS(=O)(=O)c1cc(-c2ccc(C3CC3)cc2)cnc1-n1cc2cnc(S(=O)(=O)C(F)(F)F)cc2n1` [Compound 30, 5-(4-cyclopropylphenyl)-3-(ethanesulfonyl)-2-[6-trifluoromethanesulfonylpyrazolo[4,3-c]pyridin-2-yl]pyridine], the EC50 in the test with Aedes aegypti L1 larvae was less than 40 nM. Further, the EC80 in test [1] was 1000 to 10000 nM.

Turning to `CCS(=O)(=O)c1cc(-c2ccc(C3CC3)cc2)cnc1-c1nc2cc(SC(F)(F)F)cnc2n1C` [Compound 83, 5-(4-cyclopropylphenyl)-3-(ethanesulfonyl)-2-[3-methyl-6-[(trifluoromethyl)sulfanyl]imidazo[4,5-b]pyridin-2-yl]pyridine], the concentration for a half-maximal effect (EC50) in the test on Aedes aegypti L1 larvae was less than 40 nM. Besides, the mortality at 500 ppm (in the test on Plutella xylostella; in test [2]) was 100% each time. For the same compound, the concentration for an effect of 80% (EC80) in test [1] was 1000 to 10000 nM. Moreover, in the test with Myzus persicae, the pest or weed control at 500 ppm was 100%.

`CCS(=O)(=O)c1cc(-c2ccnc(C3CC3)c2)cnc1-c1nc2cc(C(F)(F)C(F)(F)F)nnc2n1C` [Compound 60, 2′-cyclopropyl-5-(ethanesulfonyl)-6-[7-methyl-3-(1,1,2,2,2-pentafluoroethyl)imidazo[4,5-c]pyridazin-6-yl]-3,4′-bipyridine]: the EC50 with Aedes aegypti L1 larvae was less than 40 nM; in test [3], 10000 to 100000 nM. Further, the mortality at 500 ppm (in the test on Plutella xylostella; in test [2]) was 100% in each case. The EC80 in test [1] fell in the range of 1000 to 10000 nM.

As to `CCS(=O)(=O)c1cc(-c2cncc(C3CC3)c2)cnc1-c1nc2cc(C(F)(F)C(F)(F)F)nnc2n1C` [Compound 61, 5′-cyclopropyl-5-(ethanesulfonyl)-6-[7-methyl-3-(1,1,2,2,2-pentafluoroethyl)imidazo[4,5-c]pyridazin-6-yl]-3,3′-bipyridine], the 50% effective concentration (EC50) lay in the range of 40 to 50 nM in the test with Aedes aegypti L1 larvae and 10000 to 100000 nM in test [3].

`CCS(=O)(=O)c1cc(-c2ccc(C3CC3)cc2)cnc1-n1nc2cc(SC(F)(F)F)ncc2c1Cl` [Compound 27, 2-[3-chloro-6-[(trifluoromethyl)sulfanyl]pyrazolo[4,3-c]pyridin-2-yl]-5-(4-cyclopropylphenyl)-3-(ethanesulfonyl)pyridine]: the values for the EC50 (in the test with Aedes aegypti L1 larvae; in test [3]) were less than 40 nM and less than 10000 nM, respectively. For the same compound, the 80% effect concentration (EC80) in test [1] fell in the range of 1000 to 10000 nM.

`CCS(=O)(=O)c1cc(-c2ccc(C3CC3)cc2)cnc1-n1cc2cnc([S+]([O-])C(F)(F)F)cc2n1` (centres unmarked) [Compound 29, 5-(4-cyclopropylphenyl)-3-(ethanesulfonyl)-2-[6-trifluoromethanesulfinylpyrazolo[4,3-c]pyridin-2-yl]pyridine]: in the test on Aedes aegypti L1 larvae, the half-maximal effective concentration (EC50) is less than 40 nM. For the same compound, in test [1], the EC80 lay within 1000 to 10000 nM.

`CCS(=O)(=O)c1cc(-c2ccc(C3CC3)cc2)cnc1-c1ccc(OCC(F)(F)C(F)(F)F)cn1` [Compound 52, 5-(4-cyclopropylphenyl)-3-(ethanesulfonyl)-5′-(2,2,3,3,3-pentafluoropropoxy)-2,2′-bipyridine]: the EC50 with Aedes aegypti L1 larvae was less than 40 nM; in test [3], less than 10000 nM. Further, the mortality at 500 ppm (with Plutella xylostella; in test [2]) was 100% in each case. Further, the pest or weed control at 500 ppm with Myzus persicae stood at 100%.

Take `CCS(=O)(=O)c1cc(-c2ccc(C3(C(F)(F)F)CC3)cc2)cnc1-c1nc2cc(C(F)(F)C(F)(F)F)ncc2n1C` [compound 116]: the EC50 with Aedes aegypti L1 larvae was less than 40 nM.

Take `CCS(=O)(=O)c1cc(-c2ccc(C3CC3)cc2)cnc1-c1nc2cc(S(=O)(=O)C(F)(F)F)cnc2n1C` [Compound 82, 5-(4-cyclopropylphenyl)-3-(ethanesulfonyl)-2-[3-methyl-6-trifluoromethanesulfonylimidazo[4,5-b]pyridin-2-yl]pyridine]: the EC50 in the test on Aedes aegypti L1 larvae was less than 40 nM. Further, the mortality at 500 ppm (with Plutella xylostella; in test [2]) was 100% throughout. The concentration for an effect of 80% (EC80) in test [1] lay in the range of 1000 to 10000 nM.

A word on the EC50: it is the midpoint of the concentration-response curve. The EC80 is the point of the concentration-response curve where the effect stands at 80%. The mortality is the percentage killed.
